Data taken from patent US20060094020A1, “Methods and compositions for determining resistance or susceptibility of HIV-1 to stavudine” (priority 2004, published 2006).

Tested on: HIV-1 (patient-derived viruses comprising the K65R mutation in RT)
Assay: Resistance test vector (PHENOSENSE) phenotypic drug susceptibility assay, luciferase readout, single round of replication in 293 cells
Assay type: cell-based
Details: 1.7 fold is the threshold for d4T resistance
Procedure: In preferred embodiments, the phenotypic analysis of d4T resistance or susceptibility is performed using PHENOSENSE™ (ViroLogic Inc., South San Francisco, Calif.). See Petropoulos et al., 2000, Antimicrob. Agents Chemother. 44:920-928; U.S. Pat. Nos. 5,837,464 and 6,242,187. PHENOSENSE™ is a phenotypic assay that achieves the benefits of phenotypic testing and overcomes the drawbacks of previous assays. Because the assay has been automated, PHENOSENSE™ provides high throughput methods under controlled conditions for determining replication capacity of a large number of individual viral isolates.
The assay can be performed by first co-transfecting host cells with RTV DNA and a plasmid that expresses the envelope proteins of another retrovirus, for example, amphotropic murine leukemia virus (MLV). Following transfection, viral particles can be harvested from the cell culture and used to infect fresh target cells in the presence of varying amounts of anti-viral drug(s). The completion of a single round of viral replication in the fresh target cells can be detected by the means for detecting replication contained in the vector. […] The susceptibility of an HIV, or population of HIV, can be determined by measuring the concentration of antiviral drug at which the luciferase activity detected is half-maximal. […]

Question: What does the source list for Cc1cn([C@H]2C=C[C@@H](CO)O2)c(=O)[nH]c1=O [d4T, stavudine]?
Answer: IC50 fold higher than wild-type (most of the viruses comprising only the K65R mutation in RT (202 viruses)): less than 1.7 fold; IC50 fold higher than wild-type (some of the viruses comprising only the K65R mutation in RT (202 viruses)): greater than 1.7 fold
